From patent US5587463A, “Texaphyrin macrocycles and metal complexes thereof” (Board of Regents, The University of Texas System, priority 1994, dated 1996)

Experiments:
[1] = aqueous solution; 0.01 to 1 mM; cited from earlier work
[2] = cited from earlier work
[3] = 37° C. in water, 20 MHz; cited from earlier work
[4] = test system: tumor; conditions: in vivo; cited from earlier work
[5] = Hydrolysis in aqueous acid; type: physicochemical; conditions: aqueous acid
Source text: (§1) Attempts to demetallate complex 3A .cndot.NO3 were made. In an effort to obtain the free sp^2 bridged ligand 2A, the above complex in chloroform was stirred for several hours in the presence of sodium sulfide and independently with sodium thiosulfate. […] In the case of sodium sulfide, this critical conclusion was further supported by FAB MS: Other than the starting cationic complex 3A, no evidence was obtained for any moderate to high molecular weight volatile products in the mass spectrum. […] The rate of this process, however, is strongly pH dependent, the half-life being, for instance, on the order of several hours in the presence of ca. 0.1N HCl.

[6] = Stability to demetallation (sulfide, thiosulfate); type: physicochemical
Source text: The above K1 and K2 (or K1 K2) values are predicated on the assumption that the cadmium complexes under discussion are stable with regards to demetallation and that the equilibria of equations 1 and 2 (or 3) pertain under the conditions of base binding. The first of these concerns is readily apparent: If demetallation occurs, then obviously one is not studying base binding! […] The second concern is particularly important within the context of quantitative work: If, for instance, the starting complex 3.cndot.NO3 is not rigorously five coordinate, then K1 (and perhaps K2 as well) would represent an axial ligand displacement reaction rather than a pure addition process as implied above. Control experiments indicate that the assumption of initial five coordination is reasonable: Independent titrations of 3A .cndot.NO3 with NH4 NO3 and H2 O indicate that only modest and monotonic changes in the chemical shift of the "meso" signals take place over the course of adding ≥50 equivalents of these potentially adventitious ligands.^40 This means that either "complete" binding occurs at 1:1 stoichiometry (essentially ruled out in the case of H2 O on the basis of analytical data), or that these species are poorly coordinating in CHCl3 so that five coordination pertains about cadmium; the latter interpretation appearing more likely.
as §1

[7] = Axial base binding of benzimidazole, 1H NMR spectral titration; conditions: CDCl3; Scatchard plot; estimated error ≤15%; read-out: K1 (benzimidazole) (converted)
Source text: For a rigorously five coordinate starting cadmium complex, such as that represented schematically by structure 3A, where neither the counter anion nor adventitious ligands serves to occupy an apical coordination site, base binding can be considered to occur in accord with equations (1) and (2) shown below. Under conditions where K1 […]K2, these processes can be considered to occur sequentially, giving first a monoligated, presumably pentagonal pyramidal six coordinate species (such as 4bA), followed by a coordinatively saturated bisligated pentagonal bipyramidal product akin to 5aA. Where, however, K2 >>K1this stepwise conceptual approach is invalid. Under these conditions, it becomes easier to analyze the base binding in terms of direct formation of the bisligated material as shown in equation (3).
L+B LB K1 =[LB]/[L][B] (1)
LB+B LB2 K2 =[LB2 ]/[LB][B] (2)
L+2B LB2 K1 K2 =[LB2 ]/[L][B]^2 (3)
The ^1 H NMR titration of 3A .cndot.NO3 with BzIm or pyr-D5 was done. Rigorously purified complex 3A .cndot.NO3 was dried at 80° C. under reduced pressure (1 mmHg) for 1 day. Starting samples for titration were then prepared by dissolving this five coordinate complex (3.32 mg, 0.005 mmol) in 0.7 to 0.75 ml of CDCl3 and transferring quantitatively to an NMR tube. To such samples were then added increasing aliquots of either BzIm or pyr-D5 (as solutions of known concentration in CDCl3) and recording the chemical shift of the "meso" protons at 27^Q C. Control experiments were also carried out by adding known quantities of CF3 CO2 H, D2 O, and NH4 NO3 to similar stock solutions of 3.cndot.NO3.
Determination of Binding Constants. […] The chemical shift data obtained for the "meso" signals as a function of added BzIm were thus analyzed as such at both very low and very high conversion: Standard Scatchard (single reciprocal) plots^38 were constructed by plotting (δ-δo)/[BzIm] vs (δ-δo) according to equation 4 (which corresponds to eq. 5.13 of ref. 38), obtaining K as the absolute value of the slope and the term (δ.infin. -δo)K as the intercept.
(δ-δo)/[BzIm]=-K(δ-δo)+(δ.infi
Here δ is the observed chemical shift, δo is the initial chemical shift of the pure five or six coordinate starting complex (3A .cndot.NO3 or 4bA --NO3), δ.infin. the chemical shift calculated for the final mono- or bisligated complexes 4bA .cndot.NO3 or 5aA .cndot.NO3, K the equilibrium constant in question, and [BzIm] the concentration of free, uncomplexed benzimidazole. […] This was done in a straightforward manner according to the expressions given in equations 5 and 6, where [lig]o represents the concentration of the starting five coordinate ligand 3A .cndot.NO3.
(δ-δo)/δ.infin. -δo) at low
[BzIm].congruent.[BzIm]o -[lig]o at high [BzIm]o (6)
Using these corrected values for [BzIm], straight line Scatchard plots were obtained with R[…]0.99 and 0.98 respectively for the low and high [BzIm]o regimes giving values of K1 and K2 of 1.80×10^4 M^-1 and 12.9 M^-1 respectively.

[8] = test system: Herpes Simplex Virus Type 1 (HSV-1); experiment: HSV-1 photoinactivation, viral plaque assay in Vero cells; type: cell-based; conditions: for % Survival Viral Infectivity: light at max absorption, 10 J/cm^2
Source text: The photosensitized inactivation of Herpes Simple Virus, Type 1 (HSV-1) was investigated in culture medium using various macrocycles of the present invention.
The macrocycle photosensitizing studies employed enveloped HSV-1 as the model for screening based on its ease of propagation and assessment of infectivity in cell culture. The screening procedure for photoinactivation of HSV-1 was similar to the methods previously described.^3 Essentially, selected macrocycles at different concentrations were added to a cell-free suspension of 10^6 PFU/ml of HSV-1. The viral suspensions were irradiated at the optimal absorption wavelength of the selected dye at different light-energy densities. Controls consisted of (1) nonirradiated virus, (2) virus irradiated in the absence of macrocycle, and (3) virus treated with selected concentrations of macrocycle and maintained in the dark. All samples were then assessed for viral infectivity by determining the number of PFU/ml in Vero cells.
Viral suspensions were serially diluted and subsequently absorbed onto Vero cell monolayers for 11/2 hours at 37^~ C. An overlay medium was added and the cells incubated at 37^~ C. for 3-4 days. The overlay medium was then removed, the monolayers fixed with methanol and tinctured with Giemsa, and individual plaques counted under a dissecting microscope. Uninfected cell cultures also were exposed to the macrocycle complexes to rule out direct cytotoxic effects.

[9] = Optical and photophysical properties of metallotexaphyrins (laser flash photolysis, fluorescence, singlet oxygen luminescence); type: physicochemical; conditions: preliminary, photoexcitation at 350 nm
Source text: Finally, several complexes containing paramagnetic metal ions (e.g. Mn^II, Sm^III, and Eu^III, structures 5c -7c) were investigated.
Comparison of the initial intensity with that obtained using tetrakis (4-hydroxyphenyl)porphyrin (THPP) as photosensitizer^3b under identical conditions allowed calculation of the quantum yields for production of singlet oxygen (^.phi. 1.cndot.2).

[10] = test system: peripheral mononucleated vascular cells (PMC); experiment: Mitogenic assay ([3H]-Thy uptake after PHA stimulation) of peripheral mononucleated vascular cells in whole human plasma; type: cell-based; conditions: 0.15 μM, 20 joules/cm^2 of 770 nm light, aerobic
Experimental: Cell kill was determined by [3H]-Thy uptake after phytohemagglutin (PHA) stimulation.
Cell kill was determined by [^3 H]-Thy uptake after PHA stimulation.
The inactivation of PMC's in the absence and presence of light after exposure to concentrations of complex 3A in whole human plasma ranging from 0.015 to 38 μM is shown in FIG. 29 and FIG. 30. Inactivation was judged by mitogenic assay. Toxicity onset with 3A (see FIG. 4B) and 1c (see FIG. 19) in the absence of light was between 0.15 and 1.5 μM (FIG. 29). […] Moderate increase in either photosensitizer concentration or light dosage is expected to result in essentially complete cellular inactivation.

[Gd+3] [Gd(III)]
toxicity for direct use in MRI imaging [1]: too toxic to be used directly

CNC[C@H](O)[C@@H](O)[C@H](O)[C@H](O)CO.CNC[C@H](O)[C@@H](O)[C@H](O)[C@H](O)CO.O=C([O-])CN(CCN(CC(=O)[O-])CC(=O)O)CCN(CC(=O)[O-])CC(=O)O.[Gd+3] [[Gd(DTpA)(H2 O)]^2-, bis(N-methylglucamine) salt of Gd(III) diethylenetriaminepentaacetate]
excretion ([2]; after administration): excreted intact through the kidneys within several days of administration | localization ([2]; in vivo): localizes selectively in extracellular regions | relaxivity [3]: 3.7 mM-^1 s-^1

O=S(=O)([O-])c1ccc(-c2c3nc(c(-c4ccc(S(=O)(=O)[O-])cc4)c4ccc([n-]4)c(-c4ccc(S(=O)(=O)[O-])cc4)c4ccc([n-]4)c(-c4ccc(S(=O)(=O)[O-])cc4)c4nc2C=C4)C=C3)cc1.[Mn+3] [[Mn(III)TPPS]^3 -]
tumor localizing properties [4]: good tumor localizing properties

CCC1=C(C)c2cnc3ccccc3ncc3nc(cc4[n-]c(cc1n2)c(CC)c4CC)C(CC)=C3C.[Cd+2] [complex 3A]
hydrolysis in aqueous acid [5]: leads to hydrolysis of the macrocyle | demetallation by sulfide ([6]; aqueous Na2 S / excess sulfide anion): no demetallation takes place | stability relative to cadmium porphyrins ([6]; neutral conditions / base binding controls): more stable than cadmium porphyrins | Kd [7]: 55.6 µM | % Survival Viral Infectivity ([8]; 0.25 μM): 100% | % Survival Viral Infectivity ([8]; 2.5 μM): 20% | % Survival Viral Infectivity ([8]; 10 μM): 8% | % Survival Viral Infectivity ([8]; 20 μM): 12% | viral inactivation ([8]; 20 μM, viral plaque assay): ≥ 90% | triplet quantum yield [9]: roughly 80% | triplet quenching in the presence of air [9]: quenched completely by formation of singlet oxygen | triplet lifetime ([9]; absence of oxygen): 54 μs | inhibition of cellular division [10]: significant inhibition of the cellular division of PMC's
